# Experiments:
# [1] = test system: Bacillus subtilis strain ATCC 6633 and NCTC 10073; assay: Growth curves, Bacillus subtilis; format: cell-based; conditions: compound added at 8-9 hours of growth, FIG. 1
# Protocol: The compound was added at 8-9 hours, as denoted by the arrows, after the cultures had been growing. B. subtilis has a two component system that, when deleted, results in lysis and cell death.
# (§1) Growth curve method. Bacteria are grown overnight in standard medium. The following morning, the cells were inoculated into fresh medium at 1% (a 1 in 100 dilution). Furanones were added either at the beginning of growth (time 0) or, as was the case for the B. subtilis experiments, the results of which are shown in FIG. 1, during the mid-logarithmic phase of growth. Growth was then monitored regularly by spectrophotometric readings, at a wavelength of 610 nm.
# Staphylococcus aureus = assay: Minimum inhibitory (growth) concentration, S. aureus; format: cell-based; conditions: growth curves, OD 610 nm
# Protocol: as §1, with “nm. Using the type of growth described above, the minimum growth inhibitory concentration of furanones was determined for S. aureus and Streptococcus spp. were determined for a range of compounds.” for “nm.”
# [2] = test system: CopS/CopR two component signal transduction system; assay: CopS/CopR assay (cop'-lacZ, Cu2+-induced); format: cell-based, Pseudomonas syringae pv. syringae; conditions: for cop'-lacZ expression: 0.075 mM CuSO4, 6.5 hours
# Protocol: P. syringae pv syringae PS61 (pCOP38)(pPT23D) was grown on SWM media (Kinscherf and Willis, 1999) at room temperature with shaking for 48 hours. Five μg/ml streptomycin, 15 μg/ml chloramphenicol and 1.0 mM CuSO4 were added to maintain plasmids. This culture was used to inoculate 50 ml SWM media in side-arm flasks with the addition of antibiotics. These cultures were incubated at room temperature with shaking for 16 hours (OD610=0.2) at which point CuSO4 was added to a concentration of 0.075 mM (CuSO4 solution made up in MQ water).
# The test compound or mixtures of compounds were dissolved in ethanol and added to cultures to give the required final concentrations. Equal volumes of ethanol were added to Cu^2+ negative and positive cultures. Cultures were incubated for 6.5 hours at room temperature with shaking before being placed on ice. Samples were then removed for β-galactosidase assays. β-galactosidase assays were carried out in the same manner as those for the Taz assay described above.
# The effect of furanone compound 3 on the CopS/CopR two component signal transduction system that regulates copper resistance in Pseudomonas syringae pv. syringae (Mills et al., 1993) was assessed. […] However, there appears to be no difference in terms of lacZ expression between the two concentrations (p>0.15).
# [3] = test system: P. syringae var tomato BB27 swarming (GacS/GacA); assay: GacS/GacA assay (swarming on 0.4% agar SWM plates); format: cell-based, Pseudomonas syringae var. tomato
# Protocol: P. syringae var tomato BB27 was grown overnight in SWM media at room temperature. This culture was used to stab inoculate SWM plates made up with 0.4% agar and incubated at room temperature (20° C.). The culture was also used to stab inoculate sets of SWM plates (0.4% agar) that bad been made up with 25 μg/ml and 50 μg/ml of the test compound (stock solutions made up in ethanol). These plates were also incubated at room temperature for 36 hours before being examined for swarming activity and photographed. Before use all 0.4% agar SWM plates were allowed to air-dry for two hours in a laminar flow cabinet at room temperature.
# Furanones interfere with the “swarming” response of Pseudomonas syringae, which is regulated by the GacS/GacA two-component signal transduction system (Kinscherf and Willis, 1999).
# Streptococcus spp. = assay: Minimum inhibitory (growth) concentration, Streptococcus spp.; format: cell-based; conditions: growth curves, OD 610 nm
# Protocol: as §1, with “nm. Using the type of growth described above, the minimum growth inhibitory concentration of furanones was determined for S. aureus and Streptococcus spp. were determined for a range of compounds.” for “nm.”
# E. faecium = conditions: cited from earlier work
# S. aureus = conditions: cited from earlier work
# HPK NRII = HPK NRII (Escherichia coli, UniProt P0AFB5); conditions: Hilliard et al. 1999; cited from earlier work
# Chain of HPK NRII (P0AFB5 whole entry): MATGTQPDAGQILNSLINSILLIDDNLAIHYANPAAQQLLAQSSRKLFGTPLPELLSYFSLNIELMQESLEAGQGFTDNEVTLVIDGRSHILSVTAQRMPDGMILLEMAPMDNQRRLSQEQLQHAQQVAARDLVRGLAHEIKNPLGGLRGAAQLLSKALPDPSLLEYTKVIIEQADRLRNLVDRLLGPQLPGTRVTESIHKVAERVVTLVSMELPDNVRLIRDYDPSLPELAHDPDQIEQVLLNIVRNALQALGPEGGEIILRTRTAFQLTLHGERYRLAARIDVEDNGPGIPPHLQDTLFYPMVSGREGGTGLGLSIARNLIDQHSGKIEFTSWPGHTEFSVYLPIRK
# S. aureus cells = conditions: cited from earlier work
# Streptococcus pneumoniae = conditions: cited from earlier work
structure (smiles),measurement,setting,value
CCCCC1=C(Br)/C(=C/Br)OC1=O [Compound 2],growth response (optical density),[1],induction of cell lysis
same,"Minimum inhibitory (growth) concentration, Staphylococcus aureus",Staphylococcus aureus,1 to 10 µg/mL
CCC[C@@H](OC(C)=O)C1=C(Br)/C(=C/Br)OC1=O [Compound 3],cop'-lacZ expression,[2]; 25 μg/ml,significantly reduced
same,cop'-lacZ expression,[2]; 50 μg/ml,significantly reduced
same,growth inhibitory effects,"[2]; at the concentrations used (25 and 50 μg/ml), P. syringae pv syringae",did not have any growth inhibitory effects
same,swarming pattern,"[3]; 25 μg/ml, 36 hours",dramatically alters the swarming pattern
same,growth of P. syringae var. tomato,[3]; 50 μg/ml,did not inhibit the growth
same,swarming,"[3]; 50 μg/ml, 36 hours",shut down swarming
CCC[C@@H](O)C1=C(Br)/C(=C/Br)OC1=O [Compound 4],normal activity of the CopS/CopR two-component signal transduction system,[2]; concentration not given,appeared to reduce the normal activity
same,"Minimum inhibitory (growth) concentration, Streptococcus spp.",Streptococcus spp.,10 µg/mL
O=C1C=C(Br)/C(=C/Br)O1 [Compound 30],swarming response in P. syringae,[3]; concentration not given,inhibited the swarming response
same,"Minimum inhibitory (growth) concentration, Streptococcus spp.",Streptococcus spp.,10 µg/mL
same,"Minimum inhibitory (growth) concentration, Staphylococcus aureus",Staphylococcus aureus,1 to 20 µg/mL
CCCCCC(Br)C1=C(Br)/C(=C/Br)OC1=O (centres unmarked) [Compound 33],"Minimum inhibitory (growth) concentration, Staphylococcus aureus",Staphylococcus aureus,0.5 µg/mL
CCCCCC(Br)C1=CC(=C(Br)Br)OC1=O (centres unmarked) [Compound 34],"Minimum inhibitory (growth) concentration, Staphylococcus aureus",Staphylococcus aureus,0.25 µg/mL
NC(N)=NCCc1ccc(OCCC(c2ccccc2)(c2ccccc2)c2ccccc2)cc1 [RWJ-49815],active concentration (antibacterial),E. faecium,1 to 2 µg/mL
same,active concentration (antibacterial),S. aureus,1 to 2 µg/mL
same,autophosphorylation of the HPK NRII,HPK NRII,inhibited the autophosphorylation
same,permeability of the membranes of S. aureus cells,S. aureus cells,caused a rapid increase in the permeability
same,active concentration (antibacterial),Streptococcus pneumoniae,1 to 2 µg/mL

# Reference: US20050054722A1, “Inhibition of two-component signal transduction systems” (Unisearch Limited,, priority 1999, published 2005)
